Measurements from patent US20230172207A1 (BASF SE, priority 2020, published 2023).

Columns and labels:
[1] = system: Phakopsora pachyrhizi (F129L); experiment: Protective control of soybean rust on soybeans (PHAKPA P2); type: in vivo; details: soybean rust F129L
[2] = system: Phakopsora pachyrhizi (F129L); experiment: Protective control of soybean rust on soybeans (PHAKPA P6); type: in vivo; details: soybean rust F129L
[3] = system: Pyricularia oryzae; experiment: microbe, parasite or virus in culture; type: cell-based; details: 0.016 ppm, relative growth vs compound-free control (100%), 7 days
[4] = system: Colletotrichum orbiculare; experiment: Micro titer plate test against Colletotrichum orbiculare causing anthracnose (COLLLA); type: cell-based
[5] = system: Leptosphaeria nodorum; experiment: Micro titer plate test against Leptosphaeria nodorum causing wheat leaf spots (LEPTNO); type: cell-based
[6] = system: Alternaria solani (wt); experiment: microbe, parasite or virus in culture; type: cell-based
[7] = system: Alternaria solani (F129L); experiment: Micro titer plate test against Alternaria solani causing early blight (ALTESO F129L); type: cell-based; details: 4 ppm, relative growth vs compound-free control (100%), 7 days
[8] = system: Pyrenophora teres (wt); experiment: Micro titer plate test against Pyrenophora teres causing net blotch on barley (PYRNTE wt); type: cell-based
[9] = system: Pyrenophora teres (F129L); experiment: Micro titer plate test against Pyrenophora teres causing net blotch on barley (PYRNTE F129L); type: cell-based; details: 0.25 ppm, relative growth vs compound-free control (100%), 7 days
[10] = system: Microdochium nivale; type: cell-based

CNC(=O)/C(=N/OC)c1cccc(C)c1CO/N=C(\C)c1cc(F)cc(F)c1 [compound 84]
% PHAKPA (F129L) Disease level, P2 at 4 ppm ([1]; protective P2, 4 ppm): 0% | % PHAKPA (F129L) Disease level, P2 at 16 ppm ([1]; protective P2, 16 ppm): 0% | % PHAKPA (F129L) Disease level, P6 at 4 ppm ([2]; protective P6, 4 ppm): 0% | % PHAKPA (F129L) Disease level, P6 at 16 ppm ([2]; protective P6, 16 ppm): 0% | Fungal growth (%) PYRIOR [3]: 48% | Fungal growth (%) COLLLA [4]: 33% | Fungal growth (%) LEPTNO [5]: 60% | Fungal growth (%) ALTESO wt [6]: 43% | Fungal growth (%) ALTEO F129L [7]: 39% | Fungal growth (%) PYRNTE wt [8]: 39% | Fungal growth (%) PYRNTE F129L [9]: 49% | Fungal growth (%) MONGNI [10]: 32%
